Test results: US20260028335A1, “NOVEL ISOTHIAZOL-3-YL AND ISOXAZOL-3-YL SULFONAMIDE COMPOUNDS” (Hoffmann-La Roche Inc., priority 2022, published 2026)

Molecular target: human GPR17 short isoform (Homo sapiens, UniProt Q13304)
Experiment: GPR17 cAMP assay (hGPR17 cAMP, antagonist mode, TR-FRET)
Type: cell-based
Details: CHO-K1 cells stably expressing human GPR17 short isoform; EC80 of agonist MDL29,951; forskolin 15 μM; IBMX 0.5 mM
Method: GPR17 cAMP Assay Protocol:
CHO-K1 cells stably expressing vector containing untagged human GPR17 short isoform (Roche) were cultured at 37° C./5% CO2 in DMEM (Dulbecco's Modified Eagle Medium):F-12 (1:1) supplemented with 10% foetal bovine serum and 400 μg/ml Geneticin.
Changes in intracellular cyclic adenosine monophosphate (cAMP) levels were quantified using the Nano-TRF Detection Assay kit (Roche Diagnostics, Cat. No. 05214386001). This assay allows for direct cAMP quantification in a homogeneous solution. cAMP is detected based on time-resolved fluorescence energy transfer (TR-FRET) and competitive binding of ruthenylated cAMP and endogenous cAMP to an anti-cAMP monoclonal antibody labeled with AlexaFluor-700. The Ruthenium complex serves as the FRET donor and transfers energy to AlexaFluor-700. The FRET signal is inversely proportional to the cAMP concentration.
CHO-GPR17S cells were detached with Accutase and resuspended in assay buffer consisting of Hank's Balanced Salt Solution (HBSS), 10 mM HEPES (4-(2-hydroxyethyl) piperazine-1-ethanesulfonic acid solution) and 0.1% bovine serum albumin (pH 7.4). The cells were seeded in black 384-well plates (Corning) at a density of 10,000 cells/20 μl assay buffer until the addition of compounds.
Test antagonist compounds were serially diluted in dimethyl sulfoxide (DMSO) and spotted in 384-well plates. The compounds were then diluted in HBSS buffer supplemented with an EC80 concentration of MDL29,951 (3-(2-Carboxy-4,6-dichloroindol-3-yl)propionic acid) (GPR17 agonist) plus 3-Isobutyl-1-methylxanthine (IBMX) (0.5 mM final concentration) and added to the cells at room temperature. Forskolin (15 μM final concentration) was added 5 minutes after the test compounds and the cells were incubated at room temperature for 30 minutes. The assay was stopped by adding cAMP detection mix (containing detergents for cell lysis) for 90 minutes at room temperature.
Cellular cAMP was measured using a Paradigm reader (Molecular Devices). The raw data was used to calculate the FRET signal based on the assay's P-factor as per cAMP kit instructions. The data was normalized to the maximal activity of a reference antagonist and dose response curves were fitted to the percent activity of the test compounds using a sigmoidal dose response model (Genedata Screener).
Results in the hGPR17 cAMP assay are provided for compounds of formula I in Table 1

Chain of human GPR17 short isoform (Q13304 29-367): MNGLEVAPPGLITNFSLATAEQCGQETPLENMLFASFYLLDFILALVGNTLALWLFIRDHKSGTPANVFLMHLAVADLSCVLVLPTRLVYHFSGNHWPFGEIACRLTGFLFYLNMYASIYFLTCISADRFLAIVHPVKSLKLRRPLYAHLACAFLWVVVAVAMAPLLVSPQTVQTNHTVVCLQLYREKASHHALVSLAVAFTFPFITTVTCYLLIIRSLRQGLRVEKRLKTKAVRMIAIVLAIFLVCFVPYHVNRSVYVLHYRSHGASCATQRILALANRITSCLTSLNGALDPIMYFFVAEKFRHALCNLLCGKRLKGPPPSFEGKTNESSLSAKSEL

SMILES: O=S(=O)(Nc1nsc(C2CC2)c1Cl)c1c[nH]c2cc(Cl)ccc12 [Example 2, 6-chloro-N-(4-chloro-5-cyclopropyl-isothiazol-3-yl)-1H-indole-3-sulfonamide]
- IC50: 51 nM

SMILES: Cc1cc(NS(=O)(=O)c2c[nH]c3cc(Cl)ccc23)ns1 [Example 13, 6-chloro-N-(5-methylisothiazol-3-yl)-1H-indole-3-sulfonamide]
- IC50: 629 nM

SMILES: Cc1snc(NS(=O)(=O)c2c[nH]c3cc(Cl)ccc23)c1C [Example 6, 6-chloro-N-(4,5-dimethylisothiazol-3-yl)-1H-indole-3-sulfonamide]
- IC50: 216 nM

SMILES: CCc1snc(NS(=O)(=O)c2c[nH]c3cc(Cl)ccc23)c1Cl [Example 8, 6-chloro-N-(4-chloro-5-ethyl-isothiazol-3-yl)-1H-indole-3-sulfonamide]
- IC50: 105 nM

SMILES: COc1c(NS(=O)(=O)c2c[nH]c3cc(Cl)ccc23)nsc1C [Example 16, 6-chloro-N-(4-methoxy-5-methyl-isothiazol-3-yl)-1H-indole-3-sulfonamide]
- IC50: 857 nM

SMILES: Cc1onc(NS(=O)(=O)c2c[nH]c3cc(Cl)ccc23)c1C [Example 19, 6-chloro-N-(4,5-dimethylisoxazol-3-yl)-1H-indole-3-sulfonamide]
- IC50: 550 nM

SMILES: CCc1onc(NS(=O)(=O)c2c[nH]c3cc(Cl)ccc23)c1C [Example 7, 6-chloro-N-(5-ethyl-4-methyl-isoxazol-3-yl)-1H-indole-3-sulfonamide]
- IC50: 452 nM

SMILES: Cc1onc(NS(=O)(=O)c2c[nH]c3cc(Cl)ccc23)c1Br [Example 21, N-(4-bromo-5-methyl-isoxazol-3-yl)-6-chloro-1H-indole-3-sulfonamide]
- IC50: 315 nM

SMILES: CCc1c(NS(=O)(=O)c2c[nH]c3cc(Cl)ccc23)nsc1C [Example 9, 6-chloro-N-(4-ethyl-5-methyl-isothiazol-3-yl)-1H-indole-3-sulfonamide]
- IC50: 659 nM

SMILES: Cc1snc(NS(=O)(=O)c2c[nH]c3cc(Cl)ccc23)c1C1CC1 [Example 14, 6-chloro-N-(4-cyclopropyl-5-methyl-isothiazol-3-yl)-1H-indole-3-sulfonamide]
- IC50: 1110 nM

SMILES: CCOc1snc(NS(=O)(=O)c2c[nH]c3cc(Cl)ccc23)c1Cl [Example 11, 6-chloro-N-(4-chloro-5-ethoxy-isothiazol-3-yl)-1H-indole-3-sulfonamide]
- IC50: 54 nM

SMILES: N#CCCc1snc(NS(=O)(=O)c2c[nH]c3cc(Cl)ccc23)c1Cl [Example 12, 6-chloro-N-[4-chloro-5-(2-cyanoethyl)isothiazol-3-yl]-1H-indole-3-sulfonamide]
- IC50: 74 nM

SMILES: Cc1onc(NS(=O)(=O)c2c[nH]c3cc(Cl)ccc23)c1Cl [Example 20, 6-chloro-N-(4-chloro-5-methyl-isoxazol-3-yl)-1H-indole-3-sulfonamide]
- IC50: 404 nM

SMILES: CCCc1snc(NS(=O)(=O)c2c[nH]c3cc(Cl)ccc23)c1OC [Example 17, 6-chloro-N-(4-methoxy-5-propyl-isothiazol-3-yl)-1H-indole-3-sulfonamide]
- IC50: 78 nM

SMILES: Cc1snc(NS(=O)(=O)c2c[nH]c3cc(Cl)ccc23)c1C#N [Example 15, 6-chloro-N-(4-cyano-5-methyl-isothiazol-3-yl)-1H-indole-3-sulfonamide]
- IC50: 499 nM

SMILES: CCCc1snc(NS(=O)(=O)c2c[nH]c3cc(Cl)ccc23)c1Cl [Example 1, 6-chloro-N-(4-chloro-5-propyl-isothiazol-3-yl)-1H-indole-3-sulfonamide]
- IC50: 19 nM

SMILES: Cc1snc(NS(=O)(=O)c2c[nH]c3cc(Cl)ccc23)c1Cl [Example 5, 6-chloro-N-(4-chloro-5-methyl-isothiazol-3-yl)-1H-indole-3-sulfonamide]
- IC50: 106 nM

SMILES: COc1snc(NS(=O)(=O)c2c[nH]c3cc(Cl)ccc23)c1Cl [Example 10, 6-chloro-N-(4-chloro-5-methoxy-isothiazol-3-yl)-1H-indole-3-sulfonamide]
- IC50: 113 nM

SMILES: CCCc1onc(NS(=O)(=O)c2c[nH]c3cc(Cl)ccc23)c1C [Example 18, 6-chloro-N-(4-methyl-5-propyl-isoxazol-3-yl)-1H-indole-3-sulfonamide]
- IC50: 815 nM

SMILES: O=S(=O)(Nc1nsc(C2CC2)c1Cl)c1c[nH]c2nc(Br)ccc12 [Example 4, 6-bromo-N-(4-chloro-5-cyclopropyl-isothiazol-3-yl)-1H-pyrrolo[2,3-b]pyridine-3-sulfonamide]
- IC50: 103 nM

SMILES: O=S(=O)(Nc1nsc(C2CC2)c1Cl)c1c[nH]c2nc(Cl)ccc12 [Example 3, 6-chloro-N-(4-chloro-5-cyclopropyl-isothiazol-3-yl)-1H-pyrrolo[2,3-b]pyridine-3-sulfonamide]
- IC50: 131 nM
